In brackets after ≈: the same amount, converted by molar mass.

We go through nine compounds from patent US20220127297A1, “Novel Antibacterial 3"-Derivatives Of 4,6-Disubstituted 2,5-Dideoxystreptamine Aminoglycoside Antibiotics” (AGILeBiotics B.V., priority 2018, published 2022).

This assay relates to E. coli (AAC(6′)Ie-APH(2″)Ia). Kind of assay: MIC 50, broth micro-dilution, E. coli expressing AAC(6′)Ie-APH(2″)Ia. It is filed as cell-based, Escherichia coli. In a few lines: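 Broth microdilution in MH2 medium with final compound range 64 μM–31.3 nM, triplicate, incubated 18 h at 37 °C against E. coli ATCC 25922 transformed with the relevant resistance-enzyme plasmid (kanamycin A 50 μg/mL selection; inoculum OD600 0.1). Growth measured at 600 nm; MIC50 is where growth reaches half maximum.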
(In general: In broth dilution the organism is exposed to a series of concentrations in liquid medium.)

Where [1] appears, read: Escherichia coli, ATCC25922, ATCC25922 harboring plasmid encoding AAC(6′)Ie-APH(2″)Ia.
Where [2] appears, read: ATCC25922 harboring plasmid encoding AAC(6′)Ie-APH(2″)Ia.

For `N=C(NCCO)NC1[C@@H](O)C(OC2[C@@H](F)[C@H](O[C@H]3OC(CN)[C@@H](O)CC3N)C(N)C[C@H]2NC(=O)[C@@H](O)CCN)O[C@H](CO)[C@H]1O` (stereo partly drawn) [ABX5029, Tobra-AHB-F-Gua 2-hydroxy-ethyl], the MIC50 – broadly, an inhibitory concentration at the 50% level, which refers to growth in some studies and to a panel of isolates in others – under setting [1] lay in the range of 0.5 to 1 µM (≈ 0.328 to 0.657 µg/mL).

Compound `N=C(NC[C@@H]1CCCN1)NC1[C@@H](O)C(OC2[C@@H](F)[C@H](O[C@H]3OC(CN)[C@@H](O)CC3N)C(N)C[C@H]2NC(=O)[C@@H](O)CCN)O[C@H](CO)[C@H]1O` (stereo partly drawn) [ABX5026, Tobra-AHB-F-Gua (S) pyrrolidine-2-yl-methyl] returned an MIC50 under setting [1] of 0.25 to 0.5 µM (≈ 0.174 to 0.348 µg/mL).

Compound `N=C(NC[C@H]1CCNC1)NC1[C@@H](O)C(OC2[C@@H](F)[C@H](O[C@H]3OC(CN)[C@@H](O)CC3N)C(N)C[C@H]2NC(=O)[C@@H](O)CCN)O[C@H](CO)[C@H]1O` (stereo partly drawn) [ABX5042, Tobra-AHB-F-Gua (S) pyrrolidine-3-ylmethyl] registered an MIC50 under setting [1] of 0.25 µM (≈ 0.174 µg/mL).

Turning to `N=C(N)NC1[C@@H](O)C(OC2[C@@H](F)[C@H](O[C@H]3OC(CN)[C@@H](O)[C@H](O)C3N)C(N)C[C@H]2NC(=O)[C@@H](O)CCN)O[C@H](CO)[C@H]1O` (stereo partly drawn) [ABX4006, KanaB-AHB-F-Gua], the MIC50 under setting [1] was determined as 1 µM (≈ 0.629 µg/mL).

In turn, `N=C(N)NC1[C@@H](O)C(OC2[C@@H](F)[C@H](O[C@H]3OC(CN)[C@@H](O)[C@H](O)C3O)C(N)C[C@H]2NC(=O)[C@@H](O)CCN)O[C@H](CO)[C@H]1O` (stereo partly drawn) [ABX3003, 3′epi-KanaA-AHB-F-Gua] returned an MIC50 under setting [1] of 2 µM (≈ 1.26 µg/mL).

Consider `NCC[C@H](O)C(=O)N[C@@H]1C[C@H](N)[C@@H](O[C@H]2O[C@H](CN)[C@@H](O)[C@H](O)[C@H]2O)[C@H](O)[C@H]1O[C@H]1O[C@H](CO)[C@@H](O)[C@H](N)[C@H]1O` [Amikacin, amikacin, reference compound], for which, under setting [1], the MIC50 lay within 4 to 8 µM (≈ 2.34 to 4.68 µg/mL).

`N=C(N)NC1[C@@H](O)C(OC2[C@@H](O)[C@H](O[C@H]3OC(CN)[C@@H](O)[C@H](O)C3N)C(N)C[C@H]2NC(=O)[C@@H](O)CCN)O[C@H](CO)[C@H]1O` (stereo partly drawn) [ABX4009, KanaB-AHB-Gua]: the “MIC50” value under setting [2] lay within 2 to 4 µM.

`N=C(N)NC1[C@@H](O)C(OC2[C@@H](F)[C@H](O[C@H]3OC(CNCCO)[C@@H](O)CC3N)C(N)C[C@H]2NC(=O)[C@@H](O)CCN)O[C@H](CO)[C@H]1O` (stereo partly drawn) [ABX5045, 6N-2-hydroxy-ethyl-Tobra-AHB-F-Gua] registered an MIC50 under setting [1] of 0.5 µM (≈ 0.328 µg/mL).

As for `NCC[C@H](O)C(=O)N[C@@H]1CC(N)[C@@H](O[C@H]2OC(CN)[C@@H](O)[C@@H](O)C2N)[C@H](O)C1OC1O[C@H](CO)[C@@H](O)C(N)[C@H]1O` (stereo partly drawn) [ABX4002, 3′Epi-KanaB-AHB], the “MIC50” value under setting [2] is 4 to 8 µM.
